PubChem BioAssay AID1919007 (Molecular Pharmacology Branch, DTP, NCI, 2023)

Tested on: A498 complex spheroids with HUVEC/MSC, growth
Assay: Anticancer human tumor A498 cell line growth inhibition [AhR];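 also: seven day exposure starting three days after spheroid seeding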;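 as to viability, T/C: luminescence signal used as a surrogate for viable cells; luminescence viability scaled so 100% equals DMSO vehicle wells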
Settings: for IC50: curve of first compound; for viability, T/C: stronger effect = lower value
Procedure, shortened: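 Complex tumor spheroids co-cultured with HUVEC and human MSC stroma; AhR antagonists tested in combination with standard-of-care and investigational agents. Top concentration at or near clinical Cmax (else 10 microM), half-log dilutions; growth expressed as percent test/control.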

[1] = second compound 0.1 µM, first compound 0.00949 µM
[2] = second compound 0.1 µM, first compound 0.03 µM
[3] = second compound 0.1 µM, first compound 0.0949 µM
[4] = second compound 0.1 µM, first compound 0.3 µM
[5] = second compound 0.316 µM, first compound 0.00949 µM
[6] = second compound 0.316 µM, first compound 0.03 µM
[7] = second compound 0.316 µM, first compound 0.0949 µM
[8] = second compound 0.316 µM, first compound 0.3 µM
[9] = second compound 1 µM, first compound 0.00949 µM
[10] = second compound 1 µM, first compound 0.03 µM
[11] = second compound 1 µM, first compound 0.0949 µM
[12] = second compound 1 µM, first compound 0.3 µM
[13] = second compound 3.16 µM, first compound 0.00949 µM
[14] = second compound 3.16 µM, first compound 0.03 µM
[15] = second compound 3.16 µM, first compound 0.0949 µM
[16] = second compound 3.16 µM, first compound 0.3 µM
[17] = second compound 10 µM, first compound 0.00949 µM
[18] = second compound 10 µM, first compound 0.03 µM
[19] = second compound 10 µM, first compound 0.0949 µM
[20] = second compound 10 µM, first compound 0.3 µM

Structure (SMILES) | IC50 (second compound 0.1 µM) | IC50 (second compound 0.316 µM) | IC50 (second compound 1 µM) | IC50 (second compound 3.16 µM) | IC50 (second compound 10 µM) | viability, T/C [1] | viability, T/C [2] | viability, T/C [3] | viability, T/C [4] | viability, T/C [5] | viability, T/C [6] | viability, T/C [7] | viability, T/C [8] | viability, T/C [9] | viability, T/C [10] | viability, T/C [11] | viability, T/C [12] | viability, T/C [13] | viability, T/C [14] | viability, T/C [15] | other results
CCN(c1cc(-c2ccc(CN3CCOCC3)cc2)cc(C(=O)NCc2c(C)cc(C)[nH]c2=O)c1C)C1CCOCC1 + Cc1ccccc1N=Nc1ccc(NC(=O)c2ccnn2C)c(C)c1 | > 3 µM | > 3 µM | > 3 µM | > 3 µM | > 3 µM | 92.6% | 96.8% | 94.3% | 89.7% | 95.4% | 98.9% | 98.2% | 96.8% | 91.3% | 92.9% | 90.8% | 91.2% | 86.7% | 92.6% | 91% | viability, T/C (second compound 0.1 µM, first compound 0.949 µM): 93.1%; viability, T/C (second compound 0.1 µM, first compound 3 µM): 98.4%; viability, T/C (second compound 0.316 µM, first compound 0.949 µM): 96.4%; viability, T/C (second compound 0.316 µM, first compound 3 µM): 104%; viability, T/C (second compound 1 µM, first compound 0.949 µM): 85.2%; viability, T/C (second compound 1 µM, first compound 3 µM): 91.6%; viability, T/C [16]: 89.2%; viability, T/C (second compound 3.16 µM, first compound 0.949 µM): 87.7%; viability, T/C (second compound 3.16 µM, first compound 3 µM): 86.3%; viability, T/C [17]: 95.6%; viability, T/C [18]: 91%; viability, T/C [19]: 95%; viability, T/C [20]: 89.5%; viability, T/C (second compound 10 µM, first compound 0.949 µM): 92.5%; viability, T/C (second compound 10 µM, first compound 3 µM): 96.3%
Nc1ncn(C2CC(O)C(CO)S2)c(=O)n1 (stereo not given) + Cc1ccccc1N=Nc1ccc(NC(=O)c2ccnn2C)c(C)c1 | > 0.3 µM | > 0.3 µM | > 0.3 µM | > 0.3 µM | > 0.3 µM | 101% | 89.8% | 89.9% | 76.8% | 93.3% | 91.6% | 88.5% | 78.1% | 91.7% | 89.2% | 79.6% | 80.9% | 97.4% | 79.3% | 77.5% | viability, T/C (second compound 0.1 µM, first compound 0.000949 µM): 93.5%; viability, T/C (second compound 0.1 µM, first compound 0.003 µM): 97.4%; viability, T/C (second compound 0.316 µM, first compound 0.000949 µM): 98.2%; viability, T/C (second compound 0.316 µM, first compound 0.003 µM): 101%; viability, T/C (second compound 1 µM, first compound 0.000949 µM): 92%; viability, T/C (second compound 1 µM, first compound 0.003 µM): 93.1%; viability, T/C (second compound 3.16 µM, first compound 0.000949 µM): 89.8%; viability, T/C (second compound 3.16 µM, first compound 0.003 µM): 94.2%; viability, T/C [16]: 71.3%; viability, T/C (second compound 10 µM, first compound 0.000949 µM): 88.2%; viability, T/C (second compound 10 µM, first compound 0.003 µM): 89%; viability, T/C [17]: 87.8%; viability, T/C [18]: 89.1%; viability, T/C [19]: 80.8%; viability, T/C [20]: 75.7%
